Test results: patent US20200383985A1, “Inhibitors of Protease Activated Receptor-2” (Endosome Therapeutics, Inc., priority 2017, published 2020)

System: βARR1-RLuc8 or Gαq-RLuc8 and Rab5a-Venus
Assay: BRET of βARR1 and Gαq translocation to early endosomes in HEK293 cells
Type: cell-based
Conditions: trypsin 100 nM
Procedure: To determine whether trypsin induces translocation of βARR and Gαq to endosomes, we measured BRET between βARR1-RLuc8 or Gαq—RLuc8 and Rab5a-Venus in HEK293 cells. […] Immunofluorescence and structured illumination microscopy were used to localize PAR2-HA, Gαq and early endosomal antigen-1 (EEA1) in HEK-293 cells. In unstimulated cells, PAR2 was confined to the plasma membrane, although Gαq was detected in early endosomes (FIG. 18C). Trypsin (10 nM, 30 min) induced translocation of PAR2 to early endosomes containing Gαq. The results support the hypothesis that trypsin causes assembly of a PAR2/βARR/Gαq signalosome in early endosomes.
HEK293 cells were transiently transfected in 10 cm dishes (˜50% confluency) with: PAR2-RLuc8 (1 μg) and either RIT-Venus or Rab5a-Venus (both 4 μg); Flag-PAR2-HA (1 μg) and βARR1-RLuc8 (1 μg) plus Rab5a-Venus (4 μg); or Flag-PAR2-HA (1 μg) and Gαq-RLuc8 (0.5 μg), Gb (1 μg), Gg (1 μg) and Rab5a-Venus (4 μg). […] RLuc8 and YFP intensities were measured at 475±30 nm and 535±30 nm, respectively, using a LUMIstar Omega Microplate Reader (BMG LabTech) before and after challenge with proteases, biopsy supernatants or vehicle. Data are presented as a BRET ratio, calculated as the ratio of YFP to RLuc8 signals, and normalized to the baseline average, followed by vehicle subtraction. Treatment effects were determined by comparison of area under the curve values.

trypsin
βARR1-RLuc8/Rab5a-Venus BRET and Gαq-RLuc8/Rab5a-Venus BRET: stimulated an increase
